Results as given in US20040058948A1, “Mappicine analogs, methods of inhibiting retroviral reverse transcriptase and methods of treating retroviruses” (priority 2002, published 2004).

Columns and labels:
[1] = molecular target: RNase H activity of HIV reverse transcriptase (Human immunodeficiency virus type 1 group M subtype B, UniProt P04585); experiment: Fluorescence (FRET)-based RNase H activity assay of HIV reverse transcriptase; type: biochemical, HIV-1; parameters: final concentration of 2.5 nM of the p51/p66 RT heterodimer in the assay; made in house; conditions: 10 μM inhibitor concentration, activity with analog / without analog x 100; for remaining activity at 10 µM: read-out: Residual activity (%) RNase H
Procedure: Recently, a fluorescence-based assay to perform preliminary screens in search of HIV RNase H inhibitors has been developed. The assay, which is carried out in 96-well microplates and is adaptable to robotics, is the first high-throughput screen for RNase H and is described in further detail in the Experimental section. HIV-1 RT and human RNase H were cloned, and thus comparative analysis of inhibitor action could be conducted simultaneously.
The assay for RNase H activity of HIV reverse transcriptase was the fluorescence-based assay described in detail in the Experimental section and discussed in U.S. Provisional Patent Application Serial No. 60/318,359. Assays were carried out in the absence and in the presence of mappicine analogs (10 μM final concentration). The results are reported as % residual activity, which is the RNase H activity of the enzyme in the presence of the mappicine analog divided by the RNase H activity of the enzyme in the absence of the mappicine analog, multiplied by 100. Alternatively, the results are reported as % inhibition, which is calculated as the ratio of the RNase H activity of the enzyme in the presence of the mappicine analog to the enzyme activity in the absence of the mappicine analog, multiplied by 100, and then subtracting this number from 100.
Assay for Ribonuclease H Activity Based on Fluorescence Resonance Energy Transfer (FRET)
Preparation of the Fluorophore-RNA/Quencher-DNA Hybrid Duplex Substrate.
The RNA/DNA hybrid duplex substrate for use in the assay comprises an RNA oligonucleotide of sequence 5′-GAU CUG AGC CUG GGA GCU-3′, modified at the 3′-end with Aminolink-2 and derivatized with fluorescein isothiocyanate, to provide a modified RNA oligonucleotide of the sequence 5′-GAU CUG AGC CUG GGA GCU-fluorescein-3′, annealed to a complementary DNA oligonucleotide of the sequence 5′-AGC TCC CAG GCT CAG ATC-3′ modified at the 5′-end with Aminolink-2 and derivatized with the FRET acceptor DABCYL succinimidyl ester, to provide a modified DNA oligonucleotide of the sequence 5′-DABCYL-AGC TCC CAG GCT CAG ATC-3′.
To prepare the 3′-fluorescein-RNA/5′-DABCYL-DNA hybrid duplex substrate, a known amount of 3′-fluorescein-RNA was dissolved in 20 mM Tris buffer (pH 8.0, 37° C.) to provide a final concentration of 5 μM. Two equivalents of the 5′-DABCYL-DNA oligonucleotide were added, and the mixture was heated to 90° C. for 5 min and cooled slowly to room temperature to allow duplex formation. The positioning of the fluorescein donor at the 3′-end of the RNA oligonucleotide and the DABCYL acceptor at the 5′-end of the DNA oligonucleotide provides a very close proximity of the donor and acceptor that results in a very intense quenching of the fluorescein emission in the intact RNA/DNA hybrid duplex substrate due to the spectral overlap of the fluorescence emission of fluorescein with the absorption spectrum of DABCYL. In addition, DABCYL is non-fluorescent, and thus cannot contribute any light emission. Both of these factors result in a very low background and provide a high signal-to-noise in the assay measurements. The ratio of the donor fluorescence in the absence and in the presence of its quencher is approximately fifteen-fold.
Microplate Assay Protocol for the Measurement of RNase H Activity Using the RNA/DNA Hybrid Duplex Substrate.
Reaction assay mixtures contained 5 μl of a stock solution of 2.5 μM RNA/DNA hybrid duplex substrate added to 85 μl of assay buffer (50 mM Tris, pH 8.0, 37° C., containing 60 mM KCl and 2.5 mM MgCl2), prepared in the wells of a 96-well fluorescence microtiter plate, and warmed to 37° C. using the temperature control of the SpectraMax Gemini XS microplate spectrofluorometer (Molecular Devices). Reactions were started by the addition of 5 μl of a solution of recombinant HIV-1 reverse transcriptase (usually providing a final concentration of 2.5 nM of the p51/p66 RT heterodimer in the assay), and mixing using the automatic mixing function of the microplate spectrofluorometer. […]

[2] = molecular target: T1, RNA-dependent DNA polymerase activity of HIV reverse transcriptase (Human immunodeficiency virus type 1 group M subtype B, UniProt P04585); experiment: RNA-dependent DNA polymerase activity assay of HIV reverse transcriptase; type: biochemical, HIV-1; conditions: 10 μM inhibitor concentration, activity with analog / without analog x 100; for remaining activity at 10 µM: read-out: Residual activity (%) Polymerase
T1 construct: made in house
Procedure: In separate, representative assays, mappicine analogs were tested for their ability to inhibit the RNA-dependent DNA polymerase activity of HIV reverse transcriptase and for their ability to inhibit the RNase H activity of HIV reverse transcriptase. The assay for RNA-dependent DNA polymerase activity is discussed in Borkow, G. et al., “Inhibition of the Ribonuclease H and DNA Polymerase Activities of HIV-1 Reverse Transcriptase by N-(4-tert-Butylbenzoyl)-2-hydroxy-1-naphthaldehyde Hydrazone,” Biochemistry 1997, 36, 3179-3185, a copy of which is attached hereto, and the disclosure of which is incorporated herein by reference. Assays were carried out in the absence and in the presence of mappicine analogs (10 μM final concentration). The results are reported as % residual activity, which is the RNA-dependent DNA polymerase activity of the enzyme in the presence of the mappicine analog divided by the RNA-dependent activity of the enzyme in the absence of the mappicine analog, multiplied by 100.

For `Cc1c(C(O)C(C)(C)C)cc2n(c1=O)Cc1c-2nc2ccccc2c1[Si](C)(C)C(C)(C)C` (racemic) [4Aβ], the “Residual activity (%) RNase H” value [1] was 101% and the “Residual activity (%) Polymerase” value [2] was 71%.
In the case of `CCC(O)c1cc2n(c(=O)c1C)Cc1c-2nc2ccc(OC)cc2c1[Si](C)(C)C` (racemic) [5Dα], the “Residual activity (%) RNase H” value [1] is reported as 78% and the “Residual activity (%) Polymerase” value [2] is reported as 88%.
`Cc1c(C(=O)CCC2CCCCC2)cc2n(c1=O)Cc1c-2nc2ccccc2c1-c1ccccc1` [3Aδκ] was tested, and the “Residual activity (%) RNase H” value [1] was 73% and the “Residual activity (%) Polymerase” value [2] was 66%.
In the case of `CCC(=O)c1cc2n(c(=O)c1C)Cc1c-2nc2ccccc2c1[Si](C)(C)C(C)(C)C` [4Aακ], the “Residual activity (%) RNase H” value [1] is reported as 76% and the “Residual activity (%) Polymerase” value [2] is reported as 43%.
For `CCCCCCc1c2c(nc3ccc(OC)cc13)-c1cc(C(O)CC)c(C)c(=O)n1C2` (racemic) [8Dα], the “Residual activity (%) RNase H” value [1] was 66% and the “Residual activity (%) Polymerase” value [2] was 85%.
For `CCCCCCc1c2c(nc3ccc(F)cc13)-c1cc(C(O)CCC3CCCCC3)c(C)c(=O)n1C2` (centres unmarked) [8Bδ], the “Residual activity (%) RNase H” value [1] was 112% and the “Residual activity (%) Polymerase” value [2] was 90%.
In the case of `CCC(=O)c1cc2n(c(=O)c1C)Cc1c-2nc2ccc(OC)cc2c1[Si](C)(C)C` [5Dακ], the “Residual activity (%) RNase H” value [1] is reported as 86% and the “Residual activity (%) Polymerase” value [2] is reported as 50%.
`CCCCCCc1c2c(nc3ccccc13)-c1cc(C(O)CCC3CCCCC3)c(C)c(=O)n1C2` (centres unmarked) [8Aδ] was tested, and the “Residual activity (%) RNase H” value [1] was 89% and the “Residual activity (%) Polymerase” value [2] was 72%.
In the case of `COc1ccc2nc3c(c([Si](C)(C)C)c2c1)Cn1c-3cc(C(=O)C(C)(C)C)c(C)c1=O` [5Dβκ], the “Residual activity (%) RNase H” value [1] is reported as 86% and the “Residual activity (%) Polymerase” value [2] is reported as 64%.
`CCC(O)c1cc2n(c(=O)c1C)Cc1c-2nc2ccccc2c1[Si](C)(C)C(C)(C)C` (racemic) [4Aα] was tested, and the “Residual activity (%) RNase H” value [1] was 104% and the “Residual activity (%) Polymerase” value [2] was 67%.
In the case of `Cc1ccc2nc3c(c([Si](C)(C)C)c2c1)Cn1c-3cc(C(O)CCC2CCCCC2)c(C)c1=O` (racemic) [5Cδ], the “Residual activity (%) RNase H” value [1] is reported as 103% and the “Residual activity (%) Polymerase” value [2] is reported as 41%.
With `Cc1c(C(=O)CCC2CCCCC2)cc2n(c1=O)Cc1c-2nc2ccc(F)cc2c1-c1ccccc1` [3Bδκ] the “Residual activity (%) RNase H” value [1] was 93% and the “Residual activity (%) Polymerase” value [2] was 59%.
`CCC(O)c1cc2n(c(=O)c1C)Cc1c-2nc2ccc(C)cc2c1-c1ccccc1` (racemic) [3Cα] was tested, and the “Residual activity (%) RNase H” value [1] was 96% and the “Residual activity (%) Polymerase” value [2] was 64%.
`CCC(=O)c1cc2n(c(=O)c1C)Cc1c-2nc2ccc(C)cc2c1[Si](C)(C)C(C)(C)C` [4Cακ] was tested, and the “Residual activity (%) RNase H” value [1] was 90% and the “Residual activity (%) Polymerase” value [2] was 52%.
For `CCC(O)c1cc2n(c(=O)c1C)Cc1c-2nc2ccccc2c1-c1ccccc1` (racemic) [3Aα], the “Residual activity (%) RNase H” value [1] was 97% and the “Residual activity (%) Polymerase” value [2] was 90%.
In the case of `Cc1c(C(=O)CCC2CCCCC2)cc2n(c1=O)Cc1c-2nc2ccccc2c1[Si](C)(C)C` [5Aδκ], the “Residual activity (%) RNase H” value [1] is reported as 75% and the “Residual activity (%) Polymerase” value [2] is reported as 90%.
With `CCc1c2c(nc3ccc(O)cc13)-c1cc(C(O)CC)c(C)c(=O)n1C2` (centres unmarked) [AG 8M, 12-Ethyl-2-hydroxy-7-(1-hydroxypropyl)-8-methyl-11H-indolizino[1,2-b]quinolin-9-one] the remaining activity at 10 µM [1] was 87% and the remaining activity at 10 µM [2] was 69%.
`Cc1ccc2nc3c(c([Si](C)(C)C)c2c1)Cn1c-3cc(C(O)C(C)(C)C)c(C)c1=O` (racemic) [5Cβ] was tested, and the “Residual activity (%) RNase H” value [1] was 80% and the “Residual activity (%) Polymerase” value [2] was 72%.
With `Cc1c(C(O)CCC2CCCCC2)cc2n(c1=O)Cc1c-2nc2ccccc2c1-c1ccccc1` (racemic) [3Aδ] the “Residual activity (%) RNase H” value [1] was 104% and the “Residual activity (%) Polymerase” value [2] was 32%.
In the case of `CCC(=O)c1cc2n(c(=O)c1C)Cc1c-2nc2ccc(F)cc2c1-c1ccccc1` [3Bακ], the “Residual activity (%) RNase H” value [1] is reported as 94% and the “Residual activity (%) Polymerase” value [2] is reported as 100%.
For `CCCCCCc1c2c(nc3ccc(F)cc13)-c1cc(C(O)C(C)(C)C)c(C)c(=O)n1C2` (racemic) [8Bβ], the “Residual activity (%) RNase H” value [1] was 97% and the “Residual activity (%) Polymerase” value [2] was 50%.
In the case of `COc1ccc2nc3c(c(-c4ccccc4)c2c1)Cn1c-3cc(C(O)Cc2ccccc2)c(C)c1=O` (racemic) [3Dε], the “Residual activity (%) RNase H” value [1] is reported as 79% and the “Residual activity (%) Polymerase” value [2] is reported as 61%.
`CCC(O)c1cc2n(c(=O)c1C)Cc1c-2nc2ccc(C)cc2c1[Si](C)(C)C` (centres unmarked) [5Cα] was tested, and the “Residual activity (%) RNase H” value [1] was 62% and the “Residual activity (%) Polymerase” value [2] was 68%.
With `CCCCCCc1c2c(nc3ccccc13)-c1cc(C(O)CC)c(C)c(=O)n1C2` (racemic) [8Aα] the “Residual activity (%) RNase H” value [1] was 83% and the “Residual activity (%) Polymerase” value [2] was 42%.
With `Cc1c(C(O)Cc2ccccc2)cc2n(c1=O)Cc1c-2nc2ccc(F)cc2c1-c1ccccc1` (racemic) [3Bε] the “Residual activity (%) RNase H” value [1] was 91% and the “Residual activity (%) Polymerase” value [2] was 28%.
For `CCC(O)c1cc2n(c(=O)c1C)Cc1c-2nc2ccccc2c1[Si](C)(C)C` (racemic) [AG 1M], the “Residual activity (%) RNase H” value ([1]; 10 µM) was 73% and the “Residual activity (%) Polymerase” value ([2]; 10 µM) was 89%.
`Cc1c(C(O)C(C)(C)C)cc2n(c1=O)Cc1c-2nc2ccccc2c1-c1ccccc1` (racemic) [3Aβ] was tested, and the “Residual activity (%) RNase H” value [1] was 95% and the “Residual activity (%) Polymerase” value [2] was 54%.
For `CCCCCCc1c2c(nc3ccc(OC)cc13)-c1cc(C(O)CCC3CCCCC3)c(C)c(=O)n1C2` (racemic) [8Dδ], the “Residual activity (%) RNase H” value [1] was 63% and the “Residual activity (%) Polymerase” value [2] was 81%.
Molecule `CCc1c2c(nc3ccc(NC(=O)OC(C)(C)C)cc13)-c1cc(C(O)CC)c(C)c(=O)n1C2` (centres unmarked) [AG 5M, 2-tert-Butyloxycarbonylamino-12-ethyl-7-(1-hydroxypropyl)-8-methyl-11H-indolizino[1,2-b]quinolin-9-one] has a remaining activity at 10 µM [1] of 68% and a remaining activity at 10 µM [2] of 87%.
For `CCCCCCc1c2c(nc3ccc(OC)cc13)-c1cc(C(=O)CCC3CCCCC3)c(C)c(=O)n1C2` [8Dδκ], the “Residual activity (%) RNase H” value [1] was 90% and the “Residual activity (%) Polymerase” value [2] was 65%.
In the case of `Cc1c(C(O)Cc2ccccc2)cc2n(c1=O)Cc1c-2nc2ccccc2c1[Si](C)(C)C(C)(C)C` (racemic) [4Aε], the “Residual activity (%) RNase H” value [1] is reported as 93% and the “Residual activity (%) Polymerase” value [2] is reported as 83%.
In the case of `CCCCCCc1c2c(nc3ccc(C)cc13)-c1cc(C(=O)Cc3ccccc3)c(C)c(=O)n1C2` [8Cεκ], the “Residual activity (%) RNase H” value [1] is reported as 86% and the “Residual activity (%) Polymerase” value [2] is reported as 66%.
In the case of `COc1ccc2nc3c(c(-c4ccccc4)c2c1)Cn1c-3cc(C(O)CCC2CCCCC2)c(C)c1=O` (racemic) [3Dδ], the “Residual activity (%) RNase H” value [1] is reported as 67% and the “Residual activity (%) Polymerase” value [2] is reported as 60%.
`COc1ccc2nc3c(c([Si](C)(C)C(C)(C)C)c2c1)Cn1c-3cc(C(O)Cc2ccccc2)c(C)c1=O` (racemic) [4Dε] was tested, and the “Residual activity (%) RNase H” value [1] was 76% and the “Residual activity (%) Polymerase” value [2] was 49%.
